Experimental data as given in patent publication US7442696B2, “Mineralocorticoid receptor modulator compounds, processes for their preparation, and their uses” (Ligand Pharmaceuticals, Inc., priority 2004, dated 2008).
pKi: −log10 of the molar value.

Molecular target: T1, human mineralocorticoid receptor protein (MR) (Homo sapiens, UniProt P08235)
T1 construct: made in house; host or cells: Spodoptera frugiperda Sf21 insect cells (baculovirus)
T1 sequence (P08235 1-984): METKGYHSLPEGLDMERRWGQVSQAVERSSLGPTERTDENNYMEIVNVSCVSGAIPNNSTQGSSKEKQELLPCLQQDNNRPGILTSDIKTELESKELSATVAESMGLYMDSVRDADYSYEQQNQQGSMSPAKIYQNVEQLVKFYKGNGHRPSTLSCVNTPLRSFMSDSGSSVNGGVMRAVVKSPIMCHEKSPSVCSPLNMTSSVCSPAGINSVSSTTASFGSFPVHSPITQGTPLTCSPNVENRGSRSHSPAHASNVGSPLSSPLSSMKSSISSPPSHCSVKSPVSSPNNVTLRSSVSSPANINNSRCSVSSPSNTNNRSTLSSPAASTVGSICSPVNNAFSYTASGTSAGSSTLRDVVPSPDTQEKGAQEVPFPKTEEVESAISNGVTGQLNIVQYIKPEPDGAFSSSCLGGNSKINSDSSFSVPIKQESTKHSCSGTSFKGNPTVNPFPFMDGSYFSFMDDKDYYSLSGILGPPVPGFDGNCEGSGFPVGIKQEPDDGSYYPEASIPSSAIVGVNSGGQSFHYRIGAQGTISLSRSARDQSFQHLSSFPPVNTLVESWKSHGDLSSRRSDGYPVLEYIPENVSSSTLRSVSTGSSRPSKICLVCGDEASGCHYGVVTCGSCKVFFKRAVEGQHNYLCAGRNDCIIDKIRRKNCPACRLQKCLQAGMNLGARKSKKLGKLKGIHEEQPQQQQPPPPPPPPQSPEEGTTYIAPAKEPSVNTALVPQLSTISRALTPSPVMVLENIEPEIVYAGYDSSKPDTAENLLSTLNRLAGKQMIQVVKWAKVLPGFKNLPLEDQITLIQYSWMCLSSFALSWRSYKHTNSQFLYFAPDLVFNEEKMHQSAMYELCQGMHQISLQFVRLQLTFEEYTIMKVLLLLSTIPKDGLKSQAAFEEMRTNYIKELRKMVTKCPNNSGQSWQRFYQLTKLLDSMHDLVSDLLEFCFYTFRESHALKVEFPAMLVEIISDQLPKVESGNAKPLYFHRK
Experiment: Mineralocorticoid receptor binding assay ([3H]aldosterone competition, MR lysate)
Details: baculovirus-expressed MR lysate from Sf21 cells; 2-4 nM [3H]aldosterone; 16 hours at 4° C.; Cheng-Prusoff from IC50
Description: A baculovirus expression plasmid comprising cDNA encoding the human mineralocorticoid receptor protein (MR) was prepared using standard techniques. See e.g. E. A. Allegretto et. al. 268 J. Biol. Chem., 26625 (1993); G. Srinivasan and B. Thompson, 4 Mol. Endo., 209 (1990); and D. R. O'Reilly et. al., in “Baculovirus Expression Vectors”, D. R. O'Reilly et. al., eds., W. H. Freeman, New York, N.Y., pp. 139-179 (1992). That expression plasmid was co-transfected together with wild type Autographa californica multiple nuclear polyhedrosis virus DNA into Spodoptera frugiperda-21 (Sf-21) cells to generate recombinant virus comprising MR cDNA. See e.g. O'Reilly, D. R., Miller, L. K., Luckow, V. A., Regulation of expression of a baculovirus ecdysteroid UDP glucosyltransferase gene. “Baculovirus Expression Vectors.” WH Freeman, NY, 139-179 (1992). That recombinant virus comprising MR cDNA was collected.
A suspension culture of uninfected Sf21 cells was grown to a density of 1.2×10^6 cells/ml and then infected with the recombinant virus comprising MR cDNA at a multiplicity of infection of 2. Those infected Sf21 cells were incubated for 48 hours and then collected by centrifugation at 1000×g for 10 minutes at 4° C. The resulting cell pellets were resuspended in lysis buffer (50 mM Potassium Phosphate buffer, pH 7.0, 10 mM Monothioglycerol, 5 mM DTT, 20 mM Sodium Molybdate, 1 mM PMSF, 1 μg/mL aprotinin, and 10 μg/mL leupeptin) and incubated for 15 minutes on ice. Those resuspended cell pellets were homogenized using a Dounce homogenizer and a B pestle. A volume of 2 M KCl was added to the homogenized cell pellets to a final concentration of 0.4 M. The resulting MR lysates were centrifuged at 100,000×g for 60 min at 4° C. and stored for use in binding assays.
Binding assay samples were prepared in separate mini-tubes in a 96-well format at 4° C. Each binding assay sample was prepared in a volume of 250 μl of MR-Assay Buffer (10% glycerol, 10 mM sodium phosphate, 10 mM potassium fluoride, 20 mM sodium molybdate, 0.25 mM CHAPS, 2 mM DTT, (adjusted to pH 7.35)) containing 5-10 μg of MR lysate; 2-4 nM of [^3H]aldosterone; unlabeled aldosterone; and a test compound. Each test compound was assayed at several different concentrations, ranging from 0 to 10^−5 M and each was tested in the presence and in the absence of several different concentrations of unlabeled aldosterone. Each concentration of each test compound was assayed in triplicate. The assay samples were incubated for 16 hours at 4° C.
After incubation, 200 μl of 6.25% hydroxylapatite in assay buffer was added to each assay sample to precipitate the protein. The assay samples were then centrifuged and the supernatants were discarded. The resulting pellets were washed twice with assay buffer lacking DTT. Radioactivity in counts per minute (CPM) of each washed pellet was determined by liquid scintillation counter (MicroBeta™, Wallach).
Specific binding for a particular sample was calculated using the equation: (Sample CPM)−(Average Non-specific CPM) Average Non-specific CPM was defined as the amount of radioactivity from samples comprising an excess (i.e. 1000 nM) of unlabeled aldosterone. IC50 values (the concentration of test compound required to decrease specific binding by 50%) were determined using the log-logit (Hill) method. Ki values were determined using the Cheng-Prusoff equation using a previously determined Kd value for aldosterone: Ki=IC50/(1+[L]/Kd) [L]=concentration of labeled aldosterone Kd=dissociation constant of labeled aldosterone Ki values for certain mineralocorticoid receptor binding compounds are shown in Table 1.

| Compound | pKi |
| --- | --- |
| CC1OC(=S)Nc2ccc(-c3cccc(C(F)(F)F)c3)c(Cl)c21 (racemic) [Compound 111, (±)-5-Chloro-1,4-dihydro-4-methyl-6-[3-(trifluoromethyl)phenyl]-2H-3,1-benzoxazin-2-thione] | 7.35 |
| O=C1Nc2ccc(-c3cccc(C(F)(F)F)c3)c(Cl)c2C(c2ccc(F)cc2)O1 (racemic) [Compound 118, (±)-5-Chloro-4-(4-fluorophenyl)-1,4-dihydro-6-[3-(trifluoromethyl)phenyl]-2H-3,1-benzoxazin-2-one] | 6.82 |
| CC1(C)OC(=O)Nc2ccc(-c3cccc(C#N)c3)c(Cl)c21 [Compound 101, 5-Chloro-6-(3-cyanophenyl)-1,4-dihydro-4,4-dimethyl-2H-3,1-benzoxazin-2-one] | 7.01 |
| CC1(C)OC(=O)Nc2ccc(-c3cccc(C(F)(F)F)c3)c(Cl)c21 [Compound 102, 5-Chloro-1,4-dihydro-4,4-dimethyl-6-[3-(trifluoromethyl)phenyl]-2H-3,1-benzoxazin-2-one] | 6.36 |
| CC(=O)c1cccc(-c2ccc3c(c2Cl)C(C)(C)OC(=O)N3)c1 [Compound 103, 6-(3-Acetylphenyl)-5-chloro-1,4-dihydro-4,4-dimethyl-2H-3,1-benzoxazin-2-one] | 6.43 |
| CC1(C)OC(=S)Nc2ccc(-c3cccc(C(F)(F)F)c3)c(Cl)c21 [Compound 104, 5-Chloro-1,4-dihydro-4,4-dimethyl-6-[3-(trifluoromethyl)phenyl]-2H-3,1-benzoxazin-2-thione] | 7.28 |
